This note sets out measurements from US20220268760A1, “ATRIAL CARDIAC MICROTISSUES FOR CHAMBER-SPECIFIC ARRHYTHMOGENIC TOXICITY RESPONSES” (Brown University, priority 2021, published 2022).

The test system of assay [1] is hiPSC-derived cardiomyocytes (MLC2v). Briefly: Flow cytometry of MLC2v expression in hiPSC-cardiomyocytes. Format: cell-based, human. The settings on record: supplementation at days 3-6 of differentiation; without it 31±0.2, p<0.05; in % (unit assumed). For orientation: A flow cytometer gives signals particle by particle.
Procedure: Cardiomyocyte differentiation. The inventors differentiated atrial and ventricular cardiomyocytes ([…] ) from GCaMP6f-expressing human induced pluripotent stem cells (hiPSCs; WTC human iPSCs, Gladstone Institutes, San Francisco, Calif., USA) using small molecule modulations of Wnt signaling, as described previously by Burridge et al., Nature Methods, 11, 855-860 (2014), with slight modifications. hiPSCs were cultured on vitronectin coated plates in Essential 8 Medium (E8 media; Thermo Fisher Scientific, Waltham, Calif., USA). Before starting differentiation, hiPSCs were singularized, seeded onto Matrigel-coated plates in E8 media with 5 μM ROCK Inhibitor (RI; Thermo Fisher Scientific, Waltham, Calif., USA) and cultured to 80% confluency, at which point the cells were treated with 4.5 μM CHIR 99021 (Tocris Bioscience, Minneapolis, Minn., USA), a glycogen synthase kinase 3 (GSK3) inhibitor, for 24±1 hours in chemically defined medium CDM3 basal medium (RPMI 1640 Thermo Fisher Scientific, Waltham, Mass., USA) supplemented with L-ascorbic acid and human serum albumin). […] Samples were run on a BD FACSAriaTM Illu Flow Cytometer (BD Biosciences, San Jose, Calif.), and data were analyzed with FlowJo (BD Biosciences, San Jose, Calif.).
The subject of assay [2] is 3D atrial microtissues (hiPSC-atrial cardiomyocytes with 5% human cardiac fibroblasts). The experiment in a line: Optical mapping of action potentials of 3D atrial microtissues under 1 Hz pacing. The conditions noted are these: for APD30 / APD50 / APD80 / APDMxR / APDTri/APDMxR / Rise Time: mean ± SD. Type of assay: cell-based. Here is the method: (§1) 3D microtissue generation. Sterile 2% (wt/vol) agarose in PBS were pipetted into 35-microwell molds with hemispherical bottoms (FIG. 1C; 3D Petri Dish®, MicroTissues Inc., see MilliporeSigma, St. Louis, Mo., USA). After casted, hydrogels equilibrated in RPMI/B27 media with 1% Pen/Strep overnight in an incubator. Lactate-purified hiPSC-cardiomyocytes were then harvested, singularized, and suspended in RPMI/B27 media with 10% FBS and 1% Pen/Strep, collecting a subset of the cells for flow cytometry analysis of cTnT and MLC2v expression. […] Cells were allowed to settle into the cylindrical recesses for 30 minutes before adding media supplemented with 5 μM ROCK Inhibitor. Culture medium was changed one day post-seeding and replaced every other day. Self-assembling, spheroidal, and scaffold-free 3D microtissues were electrically field stimulated for six-eight days with a 1 Hz, 10.0 V, and 4.0 milliseconds duration bipolar pulse train (C-Pace EP, IonOptix, Westwood, Mass., USA) to precondition the microtissues before optical mapping. […] et al., Proc. Natl. Acad. Sci., U.S.A., 101, 18129-18134 (2004). The 3D microtissues beat synchronously with 1 Hz stimulation within two days, and tissue compaction were observed within three days post-seeding. Optical mapping of cardiac action potential. The inventors transferred hydrogels containing microtissues to a Petri dish on a temperature-controlled chamber (Dual Automatic Temperature Controller TC-344B, Warner Instrument, Hamden, Conn., USA) to maintain ambient temperatures of 35±1° C. throughout imaging. Microtissues were gently perfused in a solution containing (in mM) 140 NaCl, 5.1 KCl, 1 MgCl2, 1 CaCL2, 0.33 NaH2PO4, 5 HEPES, and 7.5 glucose warmed with an inline heater. Microtissues were allowed to equilibrate in the perfusion solution for thirty minutes and subsequently labeled with a voltage-sensitive dye (5 μM di-4-ANEPPS) for five minutes to enable membrane potential (Vm) recordings of action potential. Excess residual dyes were washed out thoroughly before data collection. An active-pixel sensor (CMOS sensor) camera acquired fluorescence images at 1000 frames-per-second, and action potential traces were reconstructed from fluorescence intensity data. Semi-automated analyses of action potential parameters were conducted using an in-house analysis software and included rise time, […] to maximum repolarization rate ([…]), and APD triangulation ([…]). Screening of arrhythmogenic compounds. […] Three molds of microtissues (two atrial cardiomyocytes and one ventricular cardiomyocytes) were used to test the compound 4-aminopyridine under 1 Hz electrical stimulation with a platinum field electrode (Myopacer EP field stimulator, IonOptix, Westwood, Mass., USA). […] At each dose, the microtissues were allowed to respond to the drug for five-ten minutes before action potential recordings were acquired. At least ten seconds of data were acquired per microtissue at each dose. Instead, three molds of atrial microtissues were used to test the compound ivabradine without electrical stimulation to investigate how action potential properties and spontaneous activity were altered in response to the drug.

The test system of assay [3] is 3D ventricular microtissues (hiPSC-ventricular cardiomyocytes with 5% human cardiac fibroblasts). The experiment in a line: Optical mapping of action potentials of 3D ventricular microtissues under 1 Hz pacing. Format: cell-based. The settings on record: for APD30 / APD50 / APD80 / APDTri/APDMxR / Rise Time / APDMxR: mean ± SD. As for the experimental part: as §1
For assay [4], the system named is 3D atrial microtissues (spontaneous activity, If channel). Briefly: Spontaneous action potential activity of atrial microtissues without electrical stimulation. Type of assay: cell-based, human. Here is the method: 3D microtissue generation. Sterile 2% (wt/vol) agarose in PBS were pipetted into 35-microwell molds with hemispherical bottoms (FIG. 1C; 3D Petri Dish®, MicroTissues Inc., see MilliporeSigma, St. Louis, Mo., USA). After casted, hydrogels equilibrated in RPMI/B27 media with 1% Pen/Strep overnight in an incubator. Lactate-purified hiPSC-cardiomyocytes were then harvested, singularized, and suspended in RPMI/B27 media with 10% FBS and 1% Pen/Strep, collecting a subset of the cells for flow cytometry analysis of cTnT and MLC2v expression. […] Cells were allowed to settle into the cylindrical recesses for 30 minutes before adding media supplemented with 5 μM ROCK Inhibitor. Culture medium was changed one day post-seeding and replaced every other day. Self-assembling, spheroidal, and scaffold-free 3D microtissues were electrically field stimulated for six-eight days with a 1 Hz, 10.0 V, and 4.0 milliseconds duration bipolar pulse train (C-Pace EP, IonOptix, Westwood, Mass., USA) to precondition the microtissues before optical mapping. […] et al., Proc. Natl. Acad. Sci., U.S.A., 101, 18129-18134 (2004). The 3D microtissues beat synchronously with 1 Hz stimulation within two days, and tissue compaction were observed within three days post-seeding. Optical mapping of cardiac action potential. The inventors transferred hydrogels containing microtissues to a Petri dish on a temperature-controlled chamber (Dual Automatic Temperature Controller TC-344B, Warner Instrument, Hamden, Conn., USA) to maintain ambient temperatures of 35±1° C. throughout imaging. Microtissues were gently perfused in a solution containing (in mM) 140 NaCl, 5.1 KCl, 1 MgCl2, 1 CaCL2, 0.33 NaH2PO4, 5 HEPES, and 7.5 glucose warmed with an inline heater. Microtissues were allowed to equilibrate in the perfusion solution for thirty minutes and subsequently labeled with a voltage-sensitive dye (5 μM di-4-ANEPPS) for five minutes to enable membrane potential (Vm) recordings of action potential. Excess residual dyes were washed out thoroughly before data collection. An active-pixel sensor (CMOS sensor) camera acquired fluorescence images at 1000 frames-per-second, and action potential traces were reconstructed from fluorescence intensity data. Semi-automated analyses of action potential parameters were conducted using an in-house analysis software and included rise time, […] to maximum repolarization rate ([…]), and APD triangulation ([…]). Screening of arrhythmogenic compounds. […] Three molds of microtissues (two atrial cardiomyocytes and one ventricular cardiomyocytes) were used to test the compound 4-aminopyridine under 1 Hz electrical stimulation with a platinum field electrode (Myopacer EP field stimulator, IonOptix, Westwood, Mass., USA). […]

For `CC1=C(/C=C/C(C)=C/C=C/C(C)=C/C(=O)O)C(C)(C)CCC1` [Retinoic acid], the “MLC2v+ expression of cardiomyocytes” value in assay [1] stood at 18±5.
On to `Nc1ccncc1` [4-Aminopyridine], for which the APD30 is on record as 75.2 ± 11.4 ms in assay [2] (1 μM); 75.2 ± 11.4 ms in assay [2] (3 μM); 84.0 ± 10.6 ms in assay [2] (100 μM); 244.6 ± 38.4 ms in assay [3] (1 μM); 233.3 ± 35.8 ms in assay [3] (3 μM); 236.7 ± 32.5 ms in assay [3] (100 μM). For the same molecule, the APD50 in assay [2] (1 μM) is on record as 95.7 ± 12.9 ms; in assay [2] (3 μM), 97.5 ± 11.4 ms; in assay [2] (100 μM), 104.8 ± 12.0 ms; in assay [3] (1 μM) it was 287.8 ± 49.9 ms; in assay [3] (3 μM) it was 275.7 ± 47.7 ms; in assay [3] (100 μM), 280.0 ± 44.0 ms. For the same molecule, the APD80 in assay [2] (1 μM) came out at 121.4 ± 16.2 ms; in assay [2] (3 μM), 123.5 ± 14.7 ms; in assay [2] (100 μM), 129.9 ± 15.9 ms; in assay [3] (1 μM) it was 329.6 ± 50.6 ms; in assay [3] (3 μM), 321.6 ± 54.1 ms; in assay [3] (100 μM), 325.6 ± 48.5 ms. In addition, the APDMxR in assay [2] (1 μM) is reported as 126.6 ± 15.8 ms; in assay [2] (3 μM), 128.3 ± 12.9 ms; in assay [2] (100 μM) it was 136.6 ± 14.6 ms; in assay [3] (3 μM), 307.5 ± 55.2 ms; in assay [3] (100 μM) it was 312.5 ± 51.7 ms. For the same molecule, the APDTri/APDMxR in assay [2] (1 μM) is on record as 0.24 ± 0.03; in assay [2] (3 μM), 0.24 ± 0.03; in assay [2] (100 μM), 0.23 ± 0.03; in assay [3] (1 μM) it was 0.09 ± 0.01′; in assay [3] (3 μM), 0.10 ± 0.02; in assay [3] (100 μM), 0.10 ± 0.02. Besides, the “Rise Time” value turned out to be 11.9 ± 2.6 ms in assay [2] (1 μM, n=3 batches); 11.8 ± 2.2 ms in assay [2] (3 μM); 14.0 ± 3.7 ms in assay [2] (100 μM); 6.9 ± 1.9 ms in assay [3] (1 μM); 7.1 ± 2.4 ms in assay [3] (3 μM); 7.5 ± 2.6 ms in assay [3] (100 μM). Moreover, the “Change of rise time and APDTri (in words)” value in assay [2] (100 μM) is listed as “significant increase”. The “Change of APD30, APD50, APD80 and APDMxR (in words)” value is reported as “significantly prolonged” in assay [2] (increasing doses (1, 3, 100 μM)) and “No significant changes” in assay [3] (all dosages).
On to `COc1cc2c(cc1OC)CC(=O)N(CCCN(C)C[C@H]1Cc3cc(OC)c(OC)cc31)CC2` [Ivabradine], for which the “Effect on spontaneous activity (share of microtissues, in words)” value in assay [4] (atrial microtissues, 1 μM, no electrical stimulation) is recorded as “eliminate spontaneous activity in more than half of the atrial microtissues”. The “Effect on spontaneous action potential events (in words)” value in assay [4] (atrial microtissues, all tested dosages) is on record as “significantly reduced spontaneous action potential events”. Besides, in assay [4] (atrial microtissues, higher dosages), the “Effect on spontaneous activity (in words)” value is “loss of spontaneous activity”. Besides, the “Voltage trace events (in words)” value in assay [4] (small subset of spontaneous atrial microtissues, 5 μM, recovered with 1 Hz pacing) is “events resembling failed depolarization”.
